Assay results taken from patent publication US7803832B2, “N-(1-arylpyrazol-4L)sulfonamides and their use as parasiticides” (Pfizer Inc., priority 2004, dated 2010).

System: Ctenocephalides felis (cat flea)
Assay: flea membrane feed test
Conditions: in vitro membrane feed; adult fleas fed 2 hours on citrated dog blood containing compound, stored overnight, percentage of fleas killed; dose responses repeated n=5
Method: The flea membrane feed test is used to measure the biological activities of the compounds claimed. The assay involves in vitro testing against Ctenocephalides felis conducted according to the following general procedure.
Fleas are cultured in vitro using dog blood. 25-30 adult Ctenocephalides felis (cat flea) were collected and placed in a test chamber (50 ml polystyrene tube with fine nylon mesh sealing the end). Citrated dog blood was prepared by adding aqueous sodium citrate solution (10 ml, 20% w/v, 20 g sodium citrate in 100 ml water) to dog blood (250 ml). Test compounds were dissolved in dimethylsulfoxide to give a working stock solution of 4 mg/ml. The stock solution (12.5 μl) was added to citrated dog blood (5 ml) to give an initial test concentration of 10 μg/ml. For testing at 30 μg/ml, working stock solutions of 12 mg/ml were prepared.
Citrated dog blood containing the test compound (5 ml, 10 μg/ml) was placed into a plastic Petri dish lid, which was kept at 37° C. on a heated pad. Parafilm was stretched over the open top to form a tight membrane for the fleas to feed through. The test chamber containing the fleas was placed carefully onto the parafilm membrane and the fleas commenced feeding.
The fleas were allowed to feed for 2 hours and the test chambers were then removed and stored overnight at room temperature.
The fleas were observed and the percentage of fleas killed recorded. Compounds were initially tested at 10 μg/ml, wherefrom relevant dose responses (100, 30, 10, 3, 1, 0.3, 0.1 μg/ml) were conducted and repeated n=5. Data was plotted to generate ED80, ED90 & ED95 values.

SMILES	Flea feed ED80 results [µg/mL]
CS(=O)(=O)N(c1c(C#N)nn(-c2c(Cl)cc(C(F)(F)F)cc2Cl)c1N)S(=O)(=O)c1ccc(F)cc1F [Example 84, N-{5-amino-3-cyano-1-[2,6-dichloro-4-(trifluoromethyl)phenyl]-1H-pyrazol-4-yl}-2,4-difluoro-N-(methylsulfonyl)benzenesulfonamide]	3
CS(=O)(=O)N(CC#N)c1c(C#N)nn(-c2c(Cl)cc(C(F)(F)F)cc2Cl)c1N [Example 5, N-{5-amino-3-cyano-1-[2,6-dichloro-4-(trifluoromethyl)phenyl]-1H-pyrazol-4-yl}-N-(cyanomethyl)methanesulfonamide]	1
CN(c1cn(-c2c(Cl)cc(C(F)(F)F)cc2Cl)nc1C#N)S(=O)(=O)C(F)(F)F [Example 27, N-{3-cyano-1-[2,6-dichloro-4-(trifluoromethyl)phenyl]-1H-pyrazol-4-yl}-1,1,1-trifluoro-N-methyl methanesulfonamide]	0.1
